Results published in patent publication US9308198B2, “Treatment, prevention, and reversal of alcohol-induced brain disease” (priority 2006, dated 2016).

Experiments:
[1] = tested on: cerebellar membrane cholesterol content; details: 8% ethanol diet group, pups
Method: Cholesterol content was measured using the Amplex Red assay kit (Molecular Probes, Eugene, Oreg.) according to the manufacturer's protocol. […] Briefly, tissue homogenates were prepared in RIPA buffer as described above. Samples, serially diluted in 1× reaction buffer (provided with the kit), were incubated with 150 μM Amplex Red reagent, 1 U/ml horseradish peroxidase, 1 U/ml cholesterol oxidase, and 0.1 U/ml cholesterol esterase in final reaction volumes of 100 μl. Reactions were incubated at 37° C. for 30 minutes and fluorescence was measured in a Fluorocount microplate reader (Packard Instrument Co., Meriden, Conn.) (Ex 560 nm/Em 590 nm). A standard curve was simultaneously generated using a cholesterol standard provided with the kit. The levels of cholesterol were normalized to protein concentration in the samples.

[2] = tested on: acetylcholinesterase (AChE) mRNA; details: ethanol-exposed pup cerebellar tissue vs control
Method: Total RNA was isolated from brain tissue using TRIzol reagent (Invitrogen, Carlsbad, Calif.) according to the manufacturer's protocol. RNA concentrations and purity were determined from the absorbances measured at 260 nm and 280 nm. RNA (2 μg) was reverse transcribed using the AMV First Strand cDNA synthesis kit (Roche Diagnostics Corporation, Indianapolis, Ind.) and random oligodeoxynucleotide primers. Real time quantitative RT-PCR was used to measure mRNA levels of insulin, IGF-I, and IGF-II growth factors, their corresponding receptors, neuronal (Hu), astrocytic (glial fibrillary acidic protein; GFAP), oligodendroglial (myelin-associated glycoprotein-1; MAG-1), microglial (AIF1), and endothelial (endothelin-1; ET-1) cell genes, acetyl cholinesterase (AChE), and choline acetyltransferase (ChAT). Ribosomal 18S RNA levels measured in parallel reactions were used to calculate relative abundance of the mRNA transcripts (Myers et al., Trends Biochem. Sci. 19:289 (1994); Baltensperger et al., Science 260:1950 (1993)). PCR amplifications were performed in 25 μl reactions containing cDNA generated from 2.5 ng of original RNA template, 300 nM each of gene specific forward and reverse primer (Table 1), and 12.5 μl of 2× QuantiTect SYBR Green PCR Mix (Qiagen Inc, Valencia, Calif.). […]

[3] = tested on: primary cerebellar neuron cultures; details: 10 mM for 3 hours; control and ethanol-exposed cultures
Method: In vitro experiments were used to examine the effects of ethanol on receptor binding and choline acetyltransferase (ChAT) and acetylcholinesterase (AChE) expression in cerebellar neurons. Primary neuronal cultures were generated with postnatal day 8 rat pup cerebellar tissue (Nikolic et al. Genes Dev. 10:816 (1996)). The cultures were maintained with Dulbecco's modified Eagle's medium (DMEM) supplemented with 5% fetal calf serum, 4 mM glutamine, 100 μM non-essential amino acid mixture (Gibco-BRL, Grand Island, N.Y.), 25 mM KCl, and 9 g/L glucose. Ethanol treatment was accomplished by placing the cultures (seeded in 6-well dishes or 96-well plates) in sealed chambers in which 50 mM ethanol was vaporized from a reservoir tray (de la Monte et al. Alcohol Clin. Exp. Res. 24:716 (2000); Banerjee et al. Alcohol Clin. Exp. Res. 22:2093 (1998)). Control cultures were identically treated but with water added to the reservoir tray. The chambers were flushed with gas containing 75% nitrogen, 20% oxygen, and 5% carbon dioxide. After 96 hours incubation at 37° C., the cells were harvested to measure insulin, IGF-I, and IGF-II receptor binding. Alternatively, the cells were serum-starved for 12 hours and then stimulated with 10 nM insulin, […], 25 nM IGF-II, or vehicle for 16 hours, and RNA was harvested to measure ChAT and AChE expression. Parallel 96-well cultures stimulated with growth factors for 10 minutes were used to measure ATP, or for 16 hours to measure viability, and ChAT or AChE immunoreactivity. […] To examine the effects of membrane cholesterol content on growth factor stimulated neuronal viability and function, identically treated 96-well cultures were stimulated with vehicle, 10 nM insulin, 10 nM IGF-I, or 25 nM IGF-II for 10 minutes and then analyzed for ATP content, or for 16 hours and then used to measure viability and ChAT or AChE immunoreactivity with the MICE assay (de la Monte et al., Biotechniques 26:1073 (1999)). ATP content was measured with the ATPLite assay (Packard, Meriden, Conn.). Viability was measured using the CyQuant assay (Molecular Probes, Eugene, Oreg.). Immunoreactivity was measured directly in the cultured wells using the microtiter immunocytochemical ELISA (MICE) assay (de la Monte et al., Biotechniques 26:1073 (1999)).
The effects of cholesterol or MβCD treatment on neuronal viability (FIGS. 19A-19C), ATP production (energy metabolism; FIGS. 19D-19F), ChAT (FIGS. […]) and AChE (FIGS. 19J-19L) immunoreactivity were examined in cells that were treated as described above and stimulated 12 hours with vehicle (control), 10 nM insulin, 10 nM IGF-I, or 25 nM IGF-II in serum-free medium. […] Viability was measured using the CyQuant assay and ATP content was measured using the ATPLite assay. […]

[4] = tested on: AChE; test: AChE immunoreactivity (MICE assay); assay type: cell-based; details: 10 mM for 3 hours; control and ethanol-exposed cells
Method: In vitro experiments were used to examine the effects of ethanol on receptor binding and choline acetyltransferase (ChAT) and acetylcholinesterase (AChE) expression in cerebellar neurons. Primary neuronal cultures were generated with postnatal day 8 rat pup cerebellar tissue (Nikolic et al. Genes Dev. 10:816 (1996)). The cultures were maintained with Dulbecco's modified Eagle's medium (DMEM) supplemented with 5% fetal calf serum, 4 mM glutamine, 100 μM non-essential amino acid mixture (Gibco-BRL, Grand Island, N.Y.), 25 mM KCl, and 9 g/L glucose. […] To examine the effects of membrane cholesterol content on growth factor stimulated neuronal viability and function, identically treated 96-well cultures were stimulated with vehicle, 10 nM insulin, 10 nM IGF-I, or 25 nM IGF-II for 10 minutes and then analyzed for ATP content, or for 16 hours and then used to measure viability and ChAT or AChE immunoreactivity with the MICE assay (de la Monte et al., Biotechniques 26:1073 (1999)). ATP content was measured with the ATPLite assay (Packard, Meriden, Conn.). Viability was measured using the CyQuant assay (Molecular Probes, Eugene, Oreg.). Immunoreactivity was measured directly in the cultured wells using the microtiter immunocytochemical ELISA (MICE) assay (de la Monte et al., Biotechniques 26:1073 (1999)). […]

Compound	reduction of cerebellar membrane cholesterol content relative to control [1] [%]	AChE mRNA expression [2]	mitochondrial function (ATP content) [3]	neuronal viability [3]	mean levels of AChE [4]
CCO [ethanol]	~50	increases			
CC(C)CCC[C@@H](C)[C@H]1CC[C@H]2[C@@H]3CC=C4C[C@@H](O)CC[C@]4(C)[C@H]3CC[C@]12C [cholesterol]			broadly reduced	broadly reduced	significantly increased
Methyl-β-cyclodextrin [MβCD]			broadly reduced	broadly reduced	significantly increased
